Columns and labels:
Assay in all cases: In vitro antibacterial activity, agar dilution MIC
Type in all cases: cell-based
[1] = tested on: Candida albicans CCH 442; conditions: Candida albicans CCH 442 (organism code TT); BHI agar, 35-37 °C, 20 to 24 hours; unit assumed
In short: (§1)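 Test compound was serially diluted in Brain Heart Infusion agar across twelve plates, and each plate was spot-inoculated by replicator with 1:100 culture dilutions (1:10 for slow growers such as Streptococcus). MIC was the lowest concentration giving no growth, slight haze or sparsely isolated colonies relative to a drug-free growth control.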

[2] = tested on: Enterococcus faecium ATCC 8043; conditions: Enterococcus faecium ATCC 8043 (organism code II); BHI agar, 35-37 °C, 20 to 24 hours; unit assumed
In short: as §1

[3] = tested on: Escherichia coli DC-2; conditions: Escherichia coli DC-2 (organism code SS); BHI agar, 35-37 °C, 20 to 24 hours; unit assumed
In short: as §1

[4] = tested on: Escherichia coli JUHL; conditions: Escherichia coli JUHL (organism code QQ); BHI agar, 35-37 °C, 20 to 24 hours; unit assumed
In short: as §1

[5] = tested on: Escherichia coli SS; conditions: Escherichia coli SS (organism code RR); BHI agar, 35-37 °C, 20 to 24 hours; unit assumed
In short: as §1

[6] = tested on: Haemophilis Influenzae DILL AMP R; conditions: Haemophilis Influenzae DILL AMP R (organism code WW); BHI agar, 35-37 °C, 20 to 24 hours; unit assumed
In short: as §1

[7] = tested on: Micrococcus luteus ATCC 4698; conditions: Micrococcus luteus ATCC 4698 (organism code PP); BHI agar, 35-37 °C, 20 to 24 hours; unit assumed
In short: as §1

[8] = tested on: Micrococcus luteus ATCC 9341; conditions: Micrococcus luteus ATCC 9341 (organism code OO); BHI agar, 35-37 °C, 20 to 24 hours; unit assumed
In short: as §1

[9] = tested on: Mycobacterium smegmatis ATCC 114; conditions: Mycobacterium smegmatis ATCC 114 (organism code UU); BHI agar, 35-37 °C, 20 to 24 hours; unit assumed
In short: as §1

[10] = tested on: Nocardia Asteroides ATCC9970; conditions: Nocardia Asteroides ATCC9970 (organism code VV); BHI agar, 35-37 °C, 20 to 24 hours; unit assumed
In short: as §1

[11] = tested on: Staphylococcus aureus 1775; conditions: Staphylococcus aureus 1775 (organism code GG); BHI agar, 35-37 °C, 20 to 24 hours; unit assumed
In short: as §1

[12] = tested on: Staphylococcus aureus A-5278; conditions: Staphylococcus aureus A-5278 (organism code CC); BHI agar, 35-37 °C, 20 to 24 hours; unit assumed
In short: as §1

[13] = tested on: Staphylococcus aureus A5177; conditions: Staphylococcus aureus A5177 (organism code BB); BHI agar, 35-37 °C, 20 to 24 hours; unit assumed
In short: as §1

[14] = tested on: Staphylococcus aureus ATCC 6538P; conditions: Staphylococcus aureus ATCC 6538P (organism code AA); BHI agar, 35-37 °C, 20 to 24 hours; unit assumed
In short: as §1

[15] = tested on: Staphylococcus aureus CMX 553; conditions: Staphylococcus aureus CMX 553 (organism code FF); BHI agar, 35-37 °C, 20 to 24 hours; unit assumed
In short: as §1

[16] = tested on: Staphylococcus aureus CMX 642A; conditions: Staphylococcus aureus CMX 642A (organism code DD); BHI agar, 35-37 °C, 20 to 24 hours; unit assumed
In short: as §1

[17] = tested on: Staphylococcus aureus NCTC10649M; conditions: Staphylococcus aureus NCTC10649M (organism code EE); BHI agar, 35-37 °C, 20 to 24 hours; unit assumed
In short: as §1

[18] = tested on: Staphylococcus epidermidis 3519; conditions: Staphylococcus epidermidis 3519 (organism code HH); BHI agar, 35-37 °C, 20 to 24 hours; unit assumed
In short: as §1

[19] = tested on: Streptococcus Pheumoniae 5649; conditions: Streptococcus Pheumoniae 5649 (organism code ZZA); BHI agar, 35-37 °C, 20 to 24 hours; unit assumed
In short: as §1

[20] = tested on: Streptococcus Pheumoniae 5979; conditions: Streptococcus Pheumoniae 5979 (organism code ZZ); BHI agar, 35-37 °C, 20 to 24 hours; unit assumed
In short: as §1

[21] = tested on: Streptococcus Pheumoniae ATCC6303; conditions: Streptococcus Pheumoniae ATCC6303 (organism code XX); BHI agar, 35-37 °C, 20 to 24 hours; unit assumed
In short: as §1

[22] = tested on: Streptococcus Pheumoniae GYR 1171; conditions: Streptococcus Pheumoniae GYR 1171 (organism code YY); BHI agar, 35-37 °C, 20 to 24 hours; unit assumed
In short: as §1

[23] = tested on: Streptococcus agalactiae CMX 508; conditions: Streptococcus agalactiae CMX 508 (organism code KK); BHI agar, 35-37 °C, 20 to 24 hours; unit assumed
In short: as §1

[24] = tested on: Streptococcus bovis A-5169; conditions: Streptococcus bovis A-5169 (organism code JJ); BHI agar, 35-37 °C, 20 to 24 hours; unit assumed
In short: as §1

[25] = tested on: Streptococcus pyogenes 930; conditions: Streptococcus pyogenes 930 (organism code MM); BHI agar, 35-37 °C, 20 to 24 hours; unit assumed
In short: as §1

[26] = tested on: Streptococcus pyogenes EES61; conditions: Streptococcus pyogenes EES61 (organism code LL); BHI agar, 35-37 °C, 20 to 24 hours; unit assumed
In short: as §1

[27] = tested on: Streptococcus pyogenes PIU 2548; conditions: Streptococcus pyogenes PIU 2548 (organism code NN); BHI agar, 35-37 °C, 20 to 24 hours; unit assumed
In short: as §1

Row | SMILES | MIC [1] [µg/mL] | MIC [2] [µg/mL] | MIC [3] [µg/mL] | MIC [4] [µg/mL] | MIC [5] [µg/mL] | MIC [6] [µg/mL] | MIC [7] [µg/mL] | MIC [8] [µg/mL] | MIC [9] [µg/mL] | MIC [10] [µg/mL] | MIC [11] [µg/mL] | MIC [12] [µg/mL] | MIC [13] [µg/mL] | MIC [14] [µg/mL] | MIC [15] [µg/mL] | MIC [16] [µg/mL] | MIC [17] [µg/mL] | MIC [18] [µg/mL] | MIC [19] [µg/mL] | MIC [20] [µg/mL] | further results
1 | CCCN(C)[C@H]1C[C@@H](C)O[C@@H](O[C@@H]2[C@@H](C)C(=O)[C@@H](C)C(=O)O[C@H](CC)[C@@]3(C)OC(=O)N[C@@H]3[C@@H](C)C(=O)[C@H](C)C[C@@]2(C)OCC=Cc2cnc3ccccc3c2)[C@@H]1O [Example 16, Compound of Formula (II); R is -CH2CH=CH-(3-quinolyl), R^p is H, W is absent, R^w is H, R^1 is CH2CH2CH3, R^2 is CH3] | > 100 | 0.05 | > 100 | > 100 | 0.2 | 8 | 0.39 | 0.02 | 1.56 | 0.1 | > 100 | > 100 | 0.39 | 0.39 | 0.39 | 0.39 | 0.39 | 0.39 | 0.5 | 128 | MIC [21]: 0.03 µg/mL; MIC [22]: 0.03 µg/mL; MIC [23]: 0.01 µg/mL; MIC [24]: 0.01 µg/mL; MIC [25]: 12.5 µg/mL; MIC [26]: 0.01 µg/mL; MIC [27]: 0.1 µg/mL
2 | CC[C@H]1OC(=O)[C@H](C)C(=O)[C@H](C)[C@@H](O[C@@H]2O[C@H](C)C[C@H](N(C)CC=Cc3ccccc3)[C@H]2O)[C@](C)(OCC=Cc2cnc3ccccc3c2)C[C@@H](C)C(=O)[C@H](C)[C@H]2NC(=O)O[C@@]21C [Example 17, Compound of Formula (II); R is -CH2CH=CH-(3-quinolyl), R^p is H, W is absent, R^w is H, R^1 is CH2CH=CHC6H5, R^2 is CH3] | > 100 | 0.1 | > 100 | > 100 | 1.56 | 8 | 0.39 | 0.05 | 0.39 | 0.2 | > 100 | > 100 | 0.39 | 0.39 | 0.39 | 0.39 | 0.78 | 0.39 | 0.25 | 16 | MIC [21]: ≤ 0.015 µg/mL; MIC [22]: ≤ 0.015 µg/mL; MIC [23]: 0.05 µg/mL; MIC [24]: 0.05 µg/mL; MIC [25]: 12.5 µg/mL; MIC [26]: 0.2 µg/mL; MIC [27]: 0.39 µg/mL
3 | C=C(CN(C)[C@H]1C[C@@H](C)O[C@@H](O[C@@H]2[C@@H](C)C(=O)[C@@H](C)C(=O)O[C@H](CC)[C@@]3(C)OC(=O)N[C@@H]3[C@@H](C)C(=O)[C@H](C)C[C@@]2(C)OCC=Cc2cnc3ccccc3c2)[C@@H]1O)C(=O)OC [Example 18, Compound of Formula (II); R is -CH2CH=CH-(3-quinolyl), R^p is H, W is absent, R^w is H, R^1 is CH2C(=CH2)C(O)OCH3, R^2 is CH3] | > 100 | 0.1 | > 100 | > 100 | 0.78 | 16 | 0.39 | 0.02 | 6.2 | 0.2 | > 100 | > 100 | 0.39 | 0.39 | 0.39 | 0.39 | 0.39 | 0.39 | 0.5 | 128 | MIC [21]: ≤ 0.004 µg/mL; MIC [22]: ≤ 0.004 µg/mL; MIC [23]: 0.02 µg/mL; MIC [24]: 0.02 µg/mL; MIC [25]: 25 µg/mL; MIC [26]: 0.05 µg/mL; MIC [27]: 0.39 µg/mL
4 | C=C(C)CN(C)[C@H]1C[C@@H](C)O[C@@H](O[C@@H]2[C@@H](C)C(=O)[C@@H](C)C(=O)O[C@H](CC)[C@@]3(C)OC(=O)N[C@@H]3[C@@H](C)C(=O)[C@H](C)C[C@@]2(C)OCC=Cc2cnc3ccccc3c2)[C@@H]1O [Example 19, Compound of Formula (II); R is -CH2CH=CH-(3-quinolyl), R^p is H, W is absent, R^w is H, R^1 is CH2C(=CH2)CH3,R^2 is CH3] | > 100 | 0.1 | > 100 | > 100 | 0.78 | 4 | 0.1 | 0.05 | 0.2 | 0.1 | > 100 | > 100 | 0.2 | 0.2 | 0.2 | 0.2 | 0.39 | 0.2 | 0.12 | 128 | MIC [21]: ≤ 0.004 µg/mL; MIC [22]: ≤ 0.004 µg/mL; MIC [23]: 0.02 µg/mL; MIC [24]: 0.02 µg/mL; MIC [25]: 6.2 µg/mL; MIC [26]: 0.01 µg/mL; MIC [27]: 0.2 µg/mL
5 | CC[C@H]1OC(=O)[C@H](C)C(=O)[C@H](C)[C@@H](O[C@@H]2O[C@H](C)C[C@H](N(C)C3CC3)[C@H]2O)[C@](C)(OCC=Cc2cnc3ccccc3c2)C[C@@H](C)C(=O)[C@H](C)[C@H]2NC(=O)O[C@@]21C [Example 20, Compound of Formula (II); R is -CH2CH=CH-(3-quinolyl), R^p is H, W is absent, R^w is H, R^1 is cyclo-C3H5, R^2 is CH3] | > 100 | 0.39 | > 100 | > 100 | 3.1 | 64 | 0.78 | 0.39 | 3.1 | 3.1 | > 100 | > 100 | 3.1 | 1.56 | 1.56 | 1.56 | 3.1 | 3.1 | 0.25 | 16 | MIC [21]: 0.03 µg/mL; MIC [22]: 0.03 µg/mL; MIC [23]: 0.2 µg/mL; MIC [24]: 0.2 µg/mL; MIC [25]: > 100 µg/mL; MIC [26]: 0.1 µg/mL; MIC [27]: 0.39 µg/mL

Source: patent publication EP1025114B1, “3'-N-MODIFIED 6-O-SUBSTITUTED ERYTHROMYCIN KETOLIDE DERIVATIVES HAVING ANTIBACTERIAL ACTIVITY” (priority 1997, dated 1999)
